Values joined by “and” are separate entries in the source; they are usually repeats but may differ in a detail not shown here. Equal values may be shown once.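 96-well plates; 48 h exposure; 5 concentrations. Endpoints by linear interpolation between flanking doses. Not reached: highest tested concentration assigned. GI50: concentration for 50% inhibition of growth. Definition used: TGI = concentration required for complete inhibition of growth.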

Among the test systems are COLO 205 colon; DU-145 prostate; HOP-62 NSCLC; SN12C renal; U251 CNS; BT-549 breast.
Common to all, as to assay: inhibition of tumour cell growth, NCI panel, 48 h

Turning to `COc1cnc2c(c1)C(=O)c1c-2n(CCCN2CCN(C)CC2)c(=O)c2cc(Cl)ccc12`, the GI50 in the assay on COLO 205 colon was 1.3 µM; in the assay with DU-145 prostate, 3.18 µM; in the assay on HOP-62 NSCLC, 0.95 µM; in the assay on SN12C renal, 10.2 µM; with U251 CNS, 7.24 µM. The TGI is more than 100 µM with COLO 205 colon; 19.8 µM in the assay with DU-145 prostate; 36 µM with HOP-62 NSCLC; 58.2 µM with SN12C renal; 49.6 µM in the assay with U251 CNS.
Turning to `CCCC(=O)NNc1[nH]c(-c2ccc(OC)cc2)cc1C(=O)OCC`, the GI50 was 15.7 µM with BT-549 breast; 2.39 µM in the assay with COLO 205 colon; 21.7 µM with DU-145 prostate; more than 100 µM in the assay with HOP-62 NSCLC; 17.1 µM with SN12C renal; 29.5 µM with U251 CNS. Also, the TGI is 31 µM in the assay with BT-549 breast; 5.89 µM with COLO 205 colon; 45.6 µM in the assay with DU-145 prostate; more than 100 µM in the assay with HOP-62 NSCLC; 30.9 µM in the assay with SN12C renal; more than 100 µM in the assay on U251 CNS.
Turning to `COc1cccc2c1c1nc3cc(C)c(C)cc3nc1n2CCN(C)C`, the GI50 in the assay on BT-549 breast was 2.36 µM; in the assay on COLO 205 colon, 0.767 µM; in the assay on DU-145 prostate, 3.01 µM; in the assay on HOP-62 NSCLC, 1.72 µM; in the assay with SN12C renal, 1.66 µM; in the assay on U251 CNS it was 2.21 µM. In addition, the TGI was 10.2 µM in the assay on BT-549 breast; 3.31 µM in the assay on COLO 205 colon; 12.1 µM with DU-145 prostate; 11 µM in the assay with HOP-62 NSCLC; 11.2 µM in the assay with SN12C renal; 11.7 µM in the assay on U251 CNS.
With `CC(C)=CCC/C(C)=C/CC/C(=C/COP(=O)(OCc1ccc([N+](=O)[O-])o1)N(C)CCCCCl)C(C)(C)C` (stereo not drawn), the GI50 was 15.9 µM in the assay with COLO 205 colon; 1.61 µM with DU-145 prostate; 1.83 µM in the assay with HOP-62 NSCLC; 2.6 µM in the assay on SN12C renal; 1.76 µM with U251 CNS. The TGI in the assay on COLO 205 colon is 53.1 µM; with DU-145 prostate, 9 µM; in the assay on HOP-62 NSCLC, 3.86 µM; in the assay with SN12C renal, 7.27 µM; in the assay with U251 CNS it was 12 µM.
With `COC1CC2CCC(C)[C@](O)(O2)C(=O)C(=O)N2CCCCC2C(=O)OC(C(C)CC2CCC(O)C(OC)C2)CC(=O)C(C)C=C(C)C(OC(=O)CN(C)C)C(OC)C(=O)C(C)CC(C)/C=C/C=C/C=C\1C` (stereo partly drawn), the TGI in the assay on COLO 205 colon was 25.2 µM; in the assay with DU-145 prostate, 14.5 µM; in the assay on HOP-62 NSCLC it was 19.3 µM; in the assay with SN12C renal, 18.7 µM; in the assay on U251 CNS it was 18.2 µM.
As to `COc1ccc(F)cc1C(=O)c1cnc(NC2CCN(S(C)(=O)=O)CC2)nc1N`, the GI50 with BT-549 breast is 4.11 µM; in the assay with COLO 205 colon it was 1.25 µM; in the assay on DU-145 prostate, 5.52 µM; in the assay with HOP-62 NSCLC, 5.42 µM; in the assay on SN12C renal, 4.92 µM; in the assay on U251 CNS, 1.07 µM. Moreover, the TGI in the assay on BT-549 breast is 14.3 µM; with COLO 205 colon, 5.22 µM; in the assay with DU-145 prostate it was 24.5 µM; in the assay with HOP-62 NSCLC it was more than 20.6 µM; in the assay on SN12C renal, more than 25 µM; in the assay on U251 CNS, more than 19.6 µM.
On to `CO[C@H](C(=O)N[C@@H](CCCCNC(=O)OCc1ccccc1)C(=O)OC(C)(C)C)[C@@H]1Cc2cc3cc(OC4CC(OC5CC(O)C(O)C(C)O5)C(O)C(C)O4)c(C)c(O)c3c(O)c2C(=O)[C@H]1OC1CC(OC2CC(OC3CC(C)(O)C(O)C(C)O3)C(O)C(C)O2)C(O)C(C)O1` (stereo partly drawn), for which the GI50 is 0.518 µM in the assay with BT-549 breast; 0.689 µM with COLO 205 colon; 0.842 µM with DU-145 prostate; 0.464 µM in the assay on HOP-62 NSCLC; 0.463 µM in the assay with SN12C renal; 0.529 µM in the assay with U251 CNS. The TGI is 1.81 µM in the assay on BT-549 breast; 3.63 µM in the assay on COLO 205 colon; more than 10 µM with DU-145 prostate; 2.73 µM in the assay on HOP-62 NSCLC; 3.88 µM in the assay on SN12C renal; 1.94 µM in the assay on U251 CNS.
Consider `CO[C@H]1CC[C@@]2(C)C(=CC[C@H]3[C@@H]4C[C@H](O)C[C@@]4(C)CC[C@@H]32)C1`, for which the GI50 in the assay on BT-549 breast was 7.38 µM; in the assay with COLO 205 colon, 5.02 µM; in the assay on DU-145 prostate, 4.37 µM; in the assay with HOP-62 NSCLC it was 10.2 µM; with SN12C renal it was 6.61 µM; in the assay on U251 CNS, 3.54 µM. Besides, the TGI was found to be 22.8 µM with BT-549 breast; 16.2 µM in the assay with COLO 205 colon; 15.2 µM in the assay on DU-145 prostate; 52.4 µM in the assay with HOP-62 NSCLC; 22 µM in the assay with SN12C renal; 15 µM in the assay on U251 CNS.
Turning to `COc1cc(C(=O)n2nc(N3CCN(C)CC3)c3cc(N)ccc32)cc(OC)c1OC`, the GI50 in the assay on BT-549 breast is 4.32 µM; in the assay with COLO 205 colon, 15.5 µM; in the assay on DU-145 prostate, 3.99 µM; with HOP-62 NSCLC, 5.56 µM; with SN12C renal, 4.42 µM; in the assay with U251 CNS, 3.65 µM. Further, the TGI in the assay on BT-549 breast is more than 100 µM; with COLO 205 colon, 37.3 µM; in the assay on DU-145 prostate, more than 100 µM; in the assay with HOP-62 NSCLC it was more than 100 µM; in the assay on SN12C renal, more than 100 µM; in the assay with U251 CNS, 25.8 µM.
In the case of `COC(=O)C#Cc1ccc([N+](=O)[O-])cc1`, the TGI in the assay with BT-549 breast worked out at 3.34 µM; with COLO 205 colon it was 3.41 µM; with DU-145 prostate, 3.57 µM; in the assay with HOP-62 NSCLC, 6.87 µM; in the assay with SN12C renal, 3.22 µM; in the assay on U251 CNS, 3.86 µM.
On to `CC(=O)OCC1OC(S[As](C)C)C(OC(C)=O)C1OC(C)=O` (stereo not drawn), for which the GI50 with BT-549 breast was 0.645 µM; in the assay with COLO 205 colon it was 0.176 µM; with DU-145 prostate, 0.217 µM; in the assay with HOP-62 NSCLC, 3.35 µM; with SN12C renal, 0.33 µM; with U251 CNS it was 0.546 µM. Also, the TGI in the assay with BT-549 breast was found to be 2.87 µM; in the assay with COLO 205 colon it was 2.66 µM; in the assay on DU-145 prostate it was 0.836 µM; with HOP-62 NSCLC, 15.2 µM; in the assay on SN12C renal, 1.51 µM; with U251 CNS it was 2.72 µM.
Regarding `CC/C(=C(\CC)c1ccc(OCCN(CC)CC)cc1)c1ccc(OCCN(CC)CC)cc1`, the GI50 was 4.55 µM with BT-549 breast; 1.47 µM with COLO 205 colon; 6.05 µM in the assay on DU-145 prostate; 1.73 µM in the assay on HOP-62 NSCLC; 5.32 µM in the assay on SN12C renal; 1.87 µM in the assay on U251 CNS. Besides, the TGI with BT-549 breast amounted to 13.9 µM; in the assay with COLO 205 colon, 3.07 µM; with DU-145 prostate, 19.2 µM; with HOP-62 NSCLC, 4.76 µM; in the assay with SN12C renal, 21.3 µM; in the assay with U251 CNS, 8.99 µM.
With `Cc1ccc(C(=O)NC2CCCCC2)cc1-c1ccc(C(=O)NCC2CC2)cc1`, the GI50 was more than 22.6 µM in the assay with BT-549 breast; more than 25 µM in the assay on COLO 205 colon; more than 25 µM in the assay with DU-145 prostate; more than 25 µM with HOP-62 NSCLC; more than 25 µM in the assay with SN12C renal; more than 25 µM in the assay with U251 CNS. Moreover, the TGI with BT-549 breast, with COLO 205 colon, in the assay on DU-145 prostate, with HOP-62 NSCLC, in the assay with SN12C renal and in the assay on U251 CNS was more than 25 µM throughout.
With `Cc1cc(C)nc(SC2=C(Nc3cccc(Cl)c3)C(=O)N(Cc3ccccc3)C2=O)n1`, the GI50 was more than 170 µM with BT-549 breast; more than 170 µM in the assay on COLO 205 colon; more than 170 µM in the assay on DU-145 prostate; 42.3 µM in the assay on HOP-62 NSCLC; more than 170 µM in the assay with U251 CNS. Further, the TGI with BT-549 breast, in the assay with COLO 205 colon, in the assay on DU-145 prostate, with HOP-62 NSCLC and in the assay on U251 CNS was more than 170 µM each time.
Consider `C=C[C@]1(C)C=C2C(=O)[C@@]3(O)OC(=O)[C@@]4(CCCC(C)(C)[C@H]34)[C@@]2(O)CC1`, for which the GI50 in the assay with BT-549 breast was 1.07 µM; with COLO 205 colon, 1.61 µM; with DU-145 prostate, 1.67 µM; in the assay on HOP-62 NSCLC it was 4.17 µM; in the assay on SN12C renal, 1.96 µM; in the assay on U251 CNS, 2.21 µM. The TGI in the assay on BT-549 breast was found to be 2.48 µM; with COLO 205 colon, 2.98 µM; in the assay with DU-145 prostate it was 3.69 µM; with HOP-62 NSCLC, 15.7 µM; in the assay on SN12C renal, 4.82 µM; with U251 CNS it was 5.68 µM.
Turning to `C[C@]12CCC(=O)C=C1CC[C@@H]1[C@@H]2CC[C@]2(C)C(=O)/C(=C/c3cccc(OCCN4CCOCC4)c3)C[C@@H]12`, the GI50 was 5.21 µM with COLO 205 colon; 17.9 µM in the assay on DU-145 prostate; 12.6 µM in the assay with HOP-62 NSCLC; 16.7 µM with SN12C renal; 8.5 µM in the assay on U251 CNS. The TGI in the assay with COLO 205 colon came out at 25.5 µM; in the assay with DU-145 prostate, 51.5 µM; with HOP-62 NSCLC it was 29 µM; with SN12C renal, 63.6 µM; in the assay on U251 CNS, 24.9 µM.
For `Cn1cnc2c(NCc3ccccc3)nc(NCCO)nc21`, the GI50 in the assay on BT-549 breast is 147 µM; with COLO 205 colon it was 82.2 µM; in the assay with DU-145 prostate, 125 µM; in the assay on U251 CNS, 133 µM. Also, the TGI in the assay on BT-549 breast was more than 454 µM; in the assay with COLO 205 colon it was 69.7 µM and 282 µM; in the assay with DU-145 prostate it was more than 500 µM; in the assay with HOP-62 NSCLC it was > 86 µM and 183 µM; with U251 CNS it was more than 500 µM.
With `CCN(CC)CCOc1cc2c(C(=O)OC)c(C)oc2cc1C(C)=O`, the GI50 in the assay with BT-549 breast is 7.84 µM; with COLO 205 colon it was 8.27 µM; with SN12C renal, 1.64 µM; in the assay on U251 CNS, 2.75 µM. Besides, the TGI in the assay with BT-549 breast was 22.8 µM; with COLO 205 colon, 26.6 µM; in the assay on SN12C renal, 6.54 µM; in the assay with U251 CNS, 10.7 µM.

The record behind these values is PubChem BioAssay (NCI).
